Here are results for 20 compounds from patent US11066369B2, “N-(pyridin-2-yl)pyridine-sulfonamide derivatives and their use in the treatment of disease” (Novartis AG, priority 2016, dated 2021).

For experiment [1], the target named is T1, delF508-CFTR (Homo sapiens, UniProt P13569, DEL508-508).
T1 construct: functional activity of the CFTR channel (Chloride ion transport) in patient derived primary human bronchial epithelial cells; host or cells: patient-derived primary human bronchial epithelial cells (delF508-CFTR)
T1 sequence (P13569 with tags, fused parts or gaps DEL508-508): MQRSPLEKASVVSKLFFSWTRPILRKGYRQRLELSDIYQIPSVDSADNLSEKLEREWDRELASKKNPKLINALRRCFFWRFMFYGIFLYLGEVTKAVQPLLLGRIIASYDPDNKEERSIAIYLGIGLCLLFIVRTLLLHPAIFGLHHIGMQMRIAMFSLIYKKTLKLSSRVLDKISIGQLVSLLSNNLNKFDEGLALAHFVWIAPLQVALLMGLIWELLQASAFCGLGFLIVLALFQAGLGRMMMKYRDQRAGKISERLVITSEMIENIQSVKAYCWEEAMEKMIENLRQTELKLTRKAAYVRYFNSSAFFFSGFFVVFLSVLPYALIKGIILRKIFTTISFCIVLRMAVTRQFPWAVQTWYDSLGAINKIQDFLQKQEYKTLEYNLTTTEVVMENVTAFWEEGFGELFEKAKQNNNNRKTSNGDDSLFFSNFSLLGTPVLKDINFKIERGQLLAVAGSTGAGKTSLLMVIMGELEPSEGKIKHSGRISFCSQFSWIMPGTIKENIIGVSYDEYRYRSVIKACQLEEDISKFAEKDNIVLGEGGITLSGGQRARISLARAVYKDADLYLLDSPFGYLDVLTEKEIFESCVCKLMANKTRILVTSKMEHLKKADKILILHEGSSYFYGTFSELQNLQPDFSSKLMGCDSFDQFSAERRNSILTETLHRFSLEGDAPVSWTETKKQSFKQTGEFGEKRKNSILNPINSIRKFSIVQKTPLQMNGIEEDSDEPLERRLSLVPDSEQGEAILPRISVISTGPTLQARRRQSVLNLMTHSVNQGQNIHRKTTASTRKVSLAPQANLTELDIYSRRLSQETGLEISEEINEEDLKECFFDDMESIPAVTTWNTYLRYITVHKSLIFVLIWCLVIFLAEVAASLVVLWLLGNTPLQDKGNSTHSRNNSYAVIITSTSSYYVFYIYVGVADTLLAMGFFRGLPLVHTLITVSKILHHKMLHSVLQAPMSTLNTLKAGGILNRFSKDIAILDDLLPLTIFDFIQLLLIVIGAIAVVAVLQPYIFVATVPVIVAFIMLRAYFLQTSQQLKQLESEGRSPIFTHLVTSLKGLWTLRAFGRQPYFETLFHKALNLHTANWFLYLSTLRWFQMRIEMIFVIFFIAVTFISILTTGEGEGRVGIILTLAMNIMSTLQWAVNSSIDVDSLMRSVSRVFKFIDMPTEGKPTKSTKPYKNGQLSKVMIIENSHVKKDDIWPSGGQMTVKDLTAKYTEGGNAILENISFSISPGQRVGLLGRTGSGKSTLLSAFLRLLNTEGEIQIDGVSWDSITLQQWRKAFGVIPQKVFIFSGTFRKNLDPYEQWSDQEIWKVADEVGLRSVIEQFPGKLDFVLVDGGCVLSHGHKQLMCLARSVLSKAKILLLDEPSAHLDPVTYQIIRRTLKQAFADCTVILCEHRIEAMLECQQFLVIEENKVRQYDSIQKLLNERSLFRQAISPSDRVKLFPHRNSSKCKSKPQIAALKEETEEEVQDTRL
Description: Measurement of delF508-CFTR functional activity in primary human bronchial epithelial cells (HBECs) using Multi-Transepithelial Clamp Circuit (MTECC-24) assay. The format is cell-based. The note with it: primary CF HBECs; for MTECC24 CFHBEC- Amax %: test compound added 24h before assay plus potentiator, relative to reference combination (2 μM corrector + 0.5 μM potentiator); for EC50: test compound added 24h before assay, in the presence of potentiator, mean of at least two replicates, read-out: MTECC24 CFHBEC- EC50. The procedure, abridged: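 Compound tested as 10-point, 1-in-3 concentration response (0.1% or 0.2% DMSO), 24 h basolateral pre-incubation, then re-added to both sides. MTECC-24 measured Ieq in ALI-differentiated primary delF508 bronchial cells after amiloride, forskolin activation, potentiator and INH-172 block; data normalized to DMSO baseline, EC50 fitted.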

In experiment [2] the target is T2, horseradish peroxidase (HRP) tagged delF508-CFTR (Homo sapiens, UniProt P13569, DEL508-508).
T2 construct: expressed in transfected cells
T2 sequence (P13569 with tags, fused parts or gaps DEL508-508): as above
The experiment can be described thus: Measurement of delF508-CFTR-HRP surface expression in CFBE41o- cells.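 On DelF508-CFTR-HRP Amax %: percent efficacy relative to reference corrector lumacaftor.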 The class given is cell-based. The note with it: delF508-CFTR-HRP surface expression, CFBE41o- cells; for Emax: read-out: DelF508-CFTR-HRP Amax %; for EC50: read-out: DelF508-CFTR-HRP EC50. Put shortly:
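Surface-trafficked delF508-CFTR detected via extracellular HRP tag, read as luminescence from a membrane-impermeant substrate in CFBE41o- cells. Cells pre-induced 48h with 500 ng/mL doxycycline, then exposed 24h at 37° C to a 10-point, 3-fold dilution series from 10 μM (DMSO ≤0.5%). Triplicate dose-responses fitted logistically for EC50 after per-plate normalization; fold change versus reference compound.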

Structures are written as SMILES. Counter-ions that a name gives are not always drawn.

For orientation: EC50 means the concentration at which the effect is half-maximal. With `Cc1ccccc1-c1nc(NS(=O)(=O)c2cccc(N3CCC(C)(C(=O)O)CC3)n2)ccc1Cl` [Example 255, 1-(6-(N-(5-chloro-6-(o-tolyl)pyridin-2-yl)sulfamoyl)pyridin-2-yl)-4-methylpiperidine-4-carboxylic Acid], in experiment [1], the “MTECC24 CFHBEC- Amax %” value is given as 55.1% and the EC50 was 10.4 nM. Besides, in experiment [2], the Emax came out at 222% and the concentration giving a half-maximal response (EC50) turned out to be 3160 nM.
For `CC1(C(=O)O)CCN(c2cccc(S(=O)(=O)Nc3ccc(C(F)(F)F)c(-c4ccccc4N4CCOCC4)n3)n2)CC1` [Example 343, 4-methyl-1-(6-(N-(6-(2-morpholinophenyl)-5-(trifluoromethyl)pyridin-2-yl)sulfamoyl)pyridin-2-yl)piperidine-4-carboxylic Acid], in that order: 65.3%, 86.1 nM, 197% and 2150 nM.
On to `CCc1ccccc1-c1nc(NS(=O)(=O)c2ccnc(N3CCC(C)(C(=O)O)CC3)c2)ccc1C(F)(F)F` [Example 374, 1-(4-(N-(6-(2-ethylphenyl)-5-(trifluoromethyl)pyridin-2-yl)sulfamoyl)pyridin-2-yl)-4-methylpiperidine-4-carboxylic Acid], for which, in experiment [1], the “MTECC24 CFHBEC- Amax %” value was 39.8% and the EC50 stood at 133 nM. In experiment [2], the Emax worked out at 233% and the EC50 turned out to be 2780 nM.
For `CC1(O)CN(c2cccc(S(=O)(=O)Nc3ccc(Cl)c(-c4ccc(F)cc4Cl)n3)n2)C1` [Example 213, N-(5-chloro-6-(2-chloro-4-fluorophenyl)pyridin-2-yl)-6-(3-hydroxy-3-methylazetidin-1-yl)pyridine-2-sulfonamide], in that order: 78.0%, 47.8 nM, 224% and 2490 nM.
For `Cc1cccc(C)c1-c1nc(NS(=O)(=O)c2cccc(N3CCNCC3)n2)ccc1Cl` [Example 163, N-(5-chloro-6-(2,6-dimethylphenyl)pyridin-2-yl)-6-(piperazin-1-yl)pyridine-2-sulfonamide Hydrochloride], in that order: 64.8%, 59 nM, 305% and 3140 nM.
For the compound `Cc1ccccc1-c1nc(NS(=O)(=O)c2cccc(N[C@@H]3CCOC[C@@H]3O)n2)ccc1C(F)(F)F` (racemic) [Example 275, rac-6-{[(3RS,4RS)-3-hydroxyoxan-4-yl]amino}-N-[6-(2-methylphenyl)-5-(trifluoromethyl)pyridin-2-yl]pyridine-2-sulfonamide], in experiment [1], the “MTECC24 CFHBEC- Amax %” value was 77.9% and the EC50 came to 1.5 nM. Also, in experiment [2], the concentration for a half-maximal effect (EC50) is 1070 nM.
Regarding `Cc1ccccc1-c1nc(NS(=O)(=O)c2cccc(N3CCC(N)CC3)n2)ccc1C(F)(F)F` [Example 108, 6-(4-aminopiperidin-1-yl)-N-(6-(o-tolyl)-5-(trifluoromethyl)pyridin-2-yl)pyridine-2-sulfonamide Hydrochloride], in experiment [1], the “MTECC24 CFHBEC- Amax %” value is 61.4% and the EC50 was found to be 54.9 nM. Further, in experiment [2], the Emax worked out at 336% and the half-maximal effective concentration (EC50) turned out to be 4070 nM.
Turning to `Cc1cccc(C)c1-c1nc(NS(=O)(=O)c2cccc(N)n2)ccc1C(F)(F)F` [Example 2, 6-amino-N-(6-(2,6-dimethylphenyl)-5-(trifluoromethyl)pyridin-2-yl)pyridine-2-sulfonamide], in experiment [1], the “MTECC24 CFHBEC- Amax %” value was found to be 75.5% and the EC50 stood at 8 nM. Further, in experiment [2], the Emax was found to be 724% and the EC50 was 967 nM.
In the case of `Cc1ccc(F)cc1-c1nc(NS(=O)(=O)c2cccc(N3CC(O)(CO)C3)n2)ccc1Cl` [Example 235, N-(5-chloro-6-(5-fluoro-2-methylphenyl)pyridin-2-yl)-6-(3-hydroxy-3-(hydroxymethyl)azetidin-1-yl)pyridine-2-sulfonamide], in experiment [1], the “MTECC24 CFHBEC- Amax %” value is 57.6% and the half-maximal effective concentration (EC50) stood at 182 nM. In experiment [2], the Emax came to 203% and the EC50 turned out to be 1970 nM.
For `Nc1cccc(S(=O)(=O)Nc2ccc(C(F)(F)F)c(-c3ccccc3Cl)n2)n1` [Example 17, 6-amino-N-(6-(2-chlorophenyl)-5-(trifluoromethyl)pyridin-2-yl)pyridine-2-sulfonamide], in that order: 69.5%, 5.1 nM, 510% and 2090 nM.
Turning to `CCc1ccccc1-c1nc(NS(=O)(=O)c2cccc(N3CCCC(C)(C(=O)O)C3)n2)ccc1C(F)(F)F` (stereo not shown) [Example 371, 1-(6-(N-(6-(2-ethylphenyl)-5-(trifluoromethyl)pyridin-2-yl)sulfamoyl)pyridin-2-yl)-3-methylpiperidine-3-carboxylic Acid], in experiment [1], the “MTECC24 CFHBEC- Amax %” value is given as 254.3% and the EC50 amounted to 1.97 nM. In addition, in experiment [2], the Emax turned out to be 962% and the concentration giving a half-maximal response (EC50) came out at 1130 nM.
As for `CO[C@H]1CCNC[C@H]1Nc1cccc(S(=O)(=O)Nc2ccc(C(F)(F)F)c(-c3ccccc3C)n2)n1` [Example 106, 6-(((3R,4S)-4-methoxypiperidin-3-yl)amino)-N-(6-(o-tolyl)-5-(trifluoromethyl)pyridin-2-yl)pyridine-2-sulfonamide Hydrochloride], in experiment [1], the “MTECC24 CFHBEC- Amax %” value is 106.4% and the EC50 stood at 79.5 nM. In experiment [2], the Emax was found to be 912% and the half-maximal effective concentration (EC50) was 2580 nM.
As for `Nc1cccc(S(=O)(=O)Nc2ccc(C(F)(F)F)c(-c3ccccc3C(F)(F)F)n2)n1` [Example 18, 6-amino-N-(5-(trifluoromethyl)-6-(2-(trifluoromethyl)phenyl)pyridin-2-yl)pyridine-2-sulfonamide], in experiment [1], the “MTECC24 CFHBEC- Amax %” value came out at 65.5% and the EC50 stood at 7.9 nM. Moreover, in experiment [2], the Emax is 505% and the EC50 was 1890 nM.
For `Cc1cccc(C)c1-c1nc(NS(=O)(=O)c2cccc(N)n2)ccc1Cl` [Example 11, 6-amino-N-(5-chloro-6-(2,6-dimethylphenyl)pyridin-2-yl)pyridine-2-sulfonamide], in that order: 94.3%, 13.6 nM, 579% and 1350 nM.
Regarding `Cc1c(F)cccc1-c1nc(NS(=O)(=O)c2cccc(N3CC(O)C3)n2)ccc1Cl` [Example 232, N-(5-chloro-6-(3-fluoro-2-methylphenyl)pyridin-2-yl)-6-(3-hydroxyazetidin-1-yl)pyridine-2-sulfonamide], in experiment [1], the “MTECC24 CFHBEC- Amax %” value was determined as 72.3% and the 50% effective concentration (EC50) was 31.9 nM. Moreover, in experiment [2], the Emax worked out at 349% and the EC50 came to 1700 nM.
Regarding `Cc1ccc(F)cc1-c1nc(NS(=O)(=O)c2cccc(N3CCN4C[C@@H](F)C[C@@H]4C3)n2)ccc1Cl` [Example 134, N-(5-chloro-6-(5-fluoro-2-methylphenyl)pyridin-2-yl)-6-((7S,8aR)-7-fluorohexahydropyrrolo[1,2-a]pyrazin-2(1H)-yl)pyridine-2-sulfonamide], in experiment [1], the “MTECC24 CFHBEC- Amax %” value is listed as 112.7% and the 50% effective concentration (EC50) came to 19 nM. In experiment [2], the Emax was 906% and the EC50 came to 1980 nM.
For `Cc1cccc(Cl)c1-c1nc(NS(=O)(=O)c2cccc(N)n2)ccc1Cl` [Example 13, 6-amino-N-(5-chloro-6-(2-chloro-6-methylphenyl)pyridin-2-yl)pyridine-2-sulfonamide], in that order: 100.1%, 24 nM, 536% and 1310 nM.
As for `Cc1c(F)cccc1-c1nc(NS(=O)(=O)c2cccc(N3CC(O)C3)n2)ccc1C(F)(F)F` [Example 216, N-(6-(3-fluoro-2-methylphenyl)-5-(trifluoromethyl)pyridin-2-yl)-6-(3-hydroxyazetidin-1-yl)pyridine-2-sulfonamide], in experiment [1], the “MTECC24 CFHBEC- Amax %” value was 82.1% and the EC50 was determined as 4.8 nM. In experiment [2], the Emax came out at 446% and the EC50 was 1710 nM.
For `CCOC(=O)C1(C)CCN(c2cccc(S(=O)(=O)Nc3ccc(Cl)c(-c4ccccc4C)n3)n2)CC1` [Example 254, ethyl 1-(6-(N-(5-chloro-6-(o-tolyl)pyridin-2-yl)sulfamoyl)pyridin-2-yl)-4-methylpiperidine-4-carboxylate], in that order: 62.2%, 3.8 nM, 620% and 2590 nM.
As to `Cc1c(F)cccc1-c1nc(NS(=O)(=O)c2cccc(N3CCNCC3)n2)ccc1C(F)(F)F` [Example 151, N-(6-(3-Fluoro-2-Methylphenyl)-5-(Trifluoromethyl)Pyridin-2-yl)-6-(Piperazin-1-yl)Pyridine-2-Sulfonamide Hydrochloride], in experiment [1], the “MTECC24 CFHBEC- Amax %” value was determined as 75.3% and the EC50 is 95.6 nM. In experiment [2], the Emax turned out to be 187% and the concentration for a half-maximal effect (EC50) was determined as 3690 nM.
